Results: patent US20210290648A1, “Potentiation of B-Lactam Antibiotics and B-Lactam/B-Lactamase Inhibitor Combinations Against Multidrug and Extensively Drug-Resistant Pseudomonas Aeruginosa Using Non-Ribosomal Tobramycin-Cyclam Conjugates” (University of Manitoba, priority 2018, published 2021)
Values after ≈ are worked out from the molar mass of the structure shown.

How the values were obtained:
[1] = test system: MRSE CAN-ICU 61589 (CAZ >32); assay: MIC, microbroth dilution; format: cell-based; conditions: Staphylococcus epidermidis, standalone, read-out: MIC
Method: (§1) Antimicrobial Susceptibility Assay. The in vitro antimicrobial activity of all compounds/antibiotics against a panel of bacteria was evaluated by microbroth dilution method in accordance with the Clinical and Laboratory Standards Institute (CLSI) guidelines. Overnight grown bacterial cultures were diluted in saline to achieve a 0.5 McFarland turbidity, followed by 1:50 dilution in Mueller-Hinton broth (MHB) for inoculation to a final concentration of approximately 5×10^5CFU/mL. The antimicrobial agents were 2-fold serially diluted in MHB in a 96-well plate and incubated at 37° C. with equal volumes of inoculum for 18 h. The lowest concentration that prevented the visible growth of bacteria was defined as the MIC for each antimicrobial agent. The broth with or without bacterial cells was used as positive or negative control, respectively.

[2] = test system: E. coli CANWARD-2011 97615 (GEN-R, TOB-R, CIP-R) aac(3′)iia; assay: MIC, microbroth dilution; format: cell-based; conditions: Escherichia coli
Method: as §1

[3] = test system: S. aureus ATCC 29213; assay: MIC, microbroth dilution; format: cell-based; conditions: Staphylococcus aureus, ATCC29213, standalone, read-out: MIC
Method: as §1

[4] = test system: MSSE CANWARD-2008 81388; assay: MIC, microbroth dilution; format: cell-based; conditions: standalone, read-out: MIC
Method: as §1

[5] = test system: E. coli CAN-ICU 63074 (AMK 32); assay: MIC, microbroth dilution; format: cell-based; conditions: Escherichia coli, standalone, read-out: MIC
Method: as §1

[6] = test system: S. maltophilia CAN-ICU 62584; assay: MIC, microbroth dilution; format: cell-based; conditions: Stenotrophomonas maltophilia, CANICU62584, standalone, read-out: MIC
Method: as §1

[7] = test system: MRSA ATCC 33592; assay: MIC, microbroth dilution; format: cell-based; conditions: Staphylococcus aureus, standalone, read-out: MIC
Method: as §1

[8] = test system: E. coli ATCC 25922; assay: MIC, microbroth dilution; format: cell-based; conditions: Escherichia coli, ATCC25922, standalone, read-out: MIC
Method: as §1

[9] = test system: A. baumannii CAN-ICU 63169; assay: MIC, microbroth dilution; format: cell-based; conditions: Acinetobacter baumannii, CANICU63169, standalone, read-out: MIC
Method: as §1

[10] = test system: E. faecalis ATCC 29212; assay: MIC, microbroth dilution; format: cell-based; conditions: Enterococcus faecalis, ATCC29212, standalone, read-out: MIC
Method: as §1

[11] = test system: S. pneumoniae ATCC 49619; assay: MIC, microbroth dilution; format: cell-based; conditions: Streptococcus pneumoniae, ATCC49619, standalone, read-out: MIC
Method: as §1

[12] = test system: E. faecium ATCC 27270; assay: MIC, microbroth dilution; format: cell-based; conditions: Enterococcus faecium, ATCC27270, standalone, read-out: MIC
Method: as §1

[13] = test system: E. coli CAN-ICU 61714 (GEN-R); assay: MIC, microbroth dilution; format: cell-based; conditions: Escherichia coli, standalone, read-out: MIC
Method: as §1

[14] = test system: panel of Gram-positive and Gram-negative bacteria; assay: MIC, panel of Gram-positive and Gram-negative bacteria; format: cell-based; conditions: standalone; susceptible strains of the panel; read-out: MIC values against susceptible strains
Method: as §1

[15] = test system: P. aeruginosa ATCC 27853; assay: MIC, microbroth dilution; format: cell-based, Pseudomonas aeruginosa; conditions: Pseudomonas aeruginosa, ATCC27853, standalone, read-out: MIC
Method: as §1

[16] = test system: P. aeruginosa CANWARD-2011 96846 (GEN-R, TOB-R); assay: MIC, microbroth dilution; format: cell-based, Pseudomonas aeruginosa; conditions: Pseudomonas aeruginosa, standalone, read-out: MIC
Method: as §1

[17] = test system: P. aeruginosa CAN-ICU 62308 (GEN-R); assay: MIC, microbroth dilution; format: cell-based, Pseudomonas aeruginosa; conditions: Pseudomonas aeruginosa, standalone, read-out: MIC
Method: as §1

[18] = test system: WT P. aeruginosa PAO1; assay: Checkerboard combination study / MIC; format: cell-based, Pseudomonas aeruginosa
[19] = test system: MDR/XDR P. aeruginosa clinical isolates; assay: MIC and checkerboard, panel of clinical isolates; format: cell-based, Pseudomonas aeruginosa
[20] = test system: K. pneumoniae ATCC 13883; assay: MIC, microbroth dilution; format: cell-based, Klebsiella pneumoniae; conditions: Klebsiella pneumoniae, ATCC13883, standalone, read-out: MIC
Method: as §1

NC[C@H]1O[C@H](O[C@H]2[C@H](O)[C@@H](O[C@H]3O[C@H](CO)[C@@H](O)[C@H](N)[C@H]3O)[C@H](N)C[C@@H]2N)[C@H](N)C[C@@H]1O [Tobramycin]
MIC [1]: 2 µg/mL (≈ 4.28 µM) | MIC [2]: 128 µg/mL (≈ 274 µM) | MIC [3]: 0.5 µg/mL (≈ 1.07 µM) | MIC [4]: ≤ 0.25 µg/mL | MIC [5]: 8 µg/mL (≈ 17.1 µM) | MIC [6]: > 512 µg/mL | MIC [7]: 0.5 µg/mL (≈ 1.07 µM) | MIC [8]: 0.5 µg/mL (≈ 1.07 µM) | MIC [9]: 32 µg/mL (≈ 68.4 µM) | MIC [10]: 8 µg/mL (≈ 17.1 µM) | MIC [11]: 2 µg/mL (≈ 4.28 µM) | MIC [12]: 16 µg/mL (≈ 34.2 µM) | MIC [13]: 8 µg/mL (≈ 17.1 µM) | MIC [14]: ≤ 2 µg/mL | MIC [15]: 1 µg/mL (≈ 2.14 µM) | MIC [16]: 256 µg/mL (≈ 548 µM) | MIC [17]: 16 µg/mL (≈ 34.2 µM) | MIC ([18]; Pseudomonas aeruginosa, PAO1, 18 h, antibiotic alone, WT PAO1 (Table 2), read-out: MIC alone): 1 µg/mL | FICI in the presence of ≤10 μM of 1 ([18]; antibiotic + compound 1, WT PAO1): 1.01 | MIC of Antibiotics in the presence of ≤10 μM of 1 ([18]; antibiotic + compound 1 ≤10 μM, WT PAO1): 1 µg/mL | FICI in the presence of ≤10 μM of 2 ([18]; antibiotic + compound 2, WT PAO1): 1.00 | MIC of Antibiotics in the presence of ≤10 μM of 2 ([18]; antibiotic + compound 2 ≤10 μM, WT PAO1): 1 µg/mL | FICI in the presence of ≤10 μM of 3 ([18]; antibiotic + compound 3, WT PAO1): 1.01 | MIC of Antibiotics in the presence of ≤10 μM of 3 ([18]; antibiotic + compound 3 ≤10 μM, WT PAO1): 1 µg/mL | FICI with compounds 1-3 ([18]; antibiotic + compounds 1-3 at ≤10 μM (≤16 μg/mL), WT PAO1): 1 | FICI with aztreonam or meropenem ([18]; tobramycin + aztreonam or meropenem, WT): 0.75-1.00 | FICI with aztreonam or meropenem ([19]; tobramycin-resistant MDR/XDR isolates): 0.56-0.75 | FICI with aztreonam or meropenem ([19]; tobramycin-susceptible MDR): 0.75 | MIC [20]: ≤ 0.25 µg/mL
